Measurements taken from PubChem BioAssay (NCI).
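Method: 48-hour compound exposure of cells in 96-well plates, five concentrations, linear interpolation of endpoints. At the GI50, growth is halved. TGI denotes the concentration required for complete inhibition of growth.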

Assays:
Assay in all cases: NCI-60 cell line screen, 48 h
SF-539 CNS = test system: SF-539 CNS
SNB-75 CNS = test system: SNB-75 CNS
MDA-MB-468 breast = test system: MDA-MB-468 breast
A498 renal = test system: A498 renal
EKVX NSCLC = test system: EKVX NSCLC
KM12 colon = test system: KM12 colon
UACC-257 melanoma = test system: UACC-257 melanoma
HT29 colon = test system: HT29 colon
NCI-H522 lung = test system: NCI-H522 lung
T-47D breast = test system: T-47D breast
IGROV1 ovarian = test system: IGROV1 ovarian
K-562 leukemia = test system: K-562 leukemia
SN12C renal = test system: SN12C renal
ACHN renal = test system: ACHN renal
LOX IMVI melanoma = test system: LOX IMVI melanoma
A549 NSCLC = test system: A549 NSCLC
HS 578T breast = test system: HS 578T breast
NCI-H23 lung = test system: NCI-H23 lung
DU-145 prostate = test system: DU-145 prostate
PC-3 prostate = test system: PC-3 prostate
SNB-19 CNS = test system: SNB-19 CNS
MCF7 breast = test system: MCF7 breast
786-0 renal = test system: 786-0 renal
SR leukemia = test system: SR leukemia
CCRF-CEM leukemia = test system: CCRF-CEM leukemia
UO-31 renal = test system: UO-31 renal
COLO 205 colon = test system: COLO 205 colon
HCT-15 colon = test system: HCT-15 colon
SF-268 CNS = test system: SF-268 CNS
NCI/ADR-RES ovarian = test system: NCI/ADR-RES ovarian

Cc1ccc(C2CC(c3ccc(NC(=O)Nc4ccccc4)cc3)=NN2c2ccc(S(N)(=O)=O)cc2)cc1 (centres undefined)
GI50 (SF-539 CNS): 12.7 µM | TGI (SF-539 CNS): 25.4 µM | GI50 (SNB-75 CNS): 10.7 µM | TGI (SNB-75 CNS): 24 µM | GI50 (MDA-MB-468 breast): 10.2 µM | TGI (MDA-MB-468 breast): 24 µM | GI50 (A498 renal): 9.06 µM | TGI (A498 renal): 21.3 µM | GI50 (EKVX NSCLC): 4.04 µM | TGI (EKVX NSCLC): 16.4 µM | GI50 (KM12 colon): 5.57 µM | TGI (KM12 colon): 22.1 µM | GI50 (UACC-257 melanoma): 8.48 µM | TGI (UACC-257 melanoma): 22 µM | GI50 (HT29 colon): 2.3 µM | TGI (HT29 colon): 7.45 µM | GI50 (NCI-H522 lung): 2.84 µM | TGI (NCI-H522 lung): 15 µM | GI50 (T-47D breast): 3.37 µM | TGI (T-47D breast): 14.6 µM | GI50 (IGROV1 ovarian): 6.9 µM | TGI (IGROV1 ovarian): 20.3 µM | GI50 (K-562 leukemia): 3.94 µM | TGI (K-562 leukemia): > 100 µM | GI50 (SN12C renal): 3.92 µM | TGI (SN12C renal): 14.5 µM | GI50 (ACHN renal): 4.16 µM | TGI (ACHN renal): 14.9 µM | GI50 (LOX IMVI melanoma): 1.76 µM | TGI (LOX IMVI melanoma): 3.23 µM | GI50 (A549 NSCLC): 3.36 µM | TGI (A549 NSCLC): 14.7 µM | GI50 (HS 578T breast): 14.8 µM | TGI (HS 578T breast): 39.1 µM | GI50 (NCI-H23 lung): 3.57 µM | TGI (NCI-H23 lung): 14.3 µM | GI50 (DU-145 prostate): 10.2 µM | TGI (DU-145 prostate): 23 µM | GI50 (PC-3 prostate): 2.6 µM | TGI (PC-3 prostate): 12.8 µM | GI50 (SNB-19 CNS): 12.7 µM | TGI (SNB-19 CNS): 25.4 µM | GI50 (MCF7 breast): 3.56 µM | TGI (MCF7 breast): 15.2 µM | GI50 (786-0 renal): 3.86 µM | TGI (786-0 renal): 15.7 µM | GI50 (SR leukemia): 4.28 µM | TGI (SR leukemia): 26.7 µM | GI50 (CCRF-CEM leukemia): 3.98 µM | TGI (CCRF-CEM leukemia): 22 µM | GI50 (UO-31 renal): 3.45 µM | TGI (UO-31 renal): 14.6 µM | GI50 (COLO 205 colon): 4.22 µM | TGI (COLO 205 colon): 18.6 µM | GI50 (HCT-15 colon): 4.35 µM | TGI (HCT-15 colon): 16.9 µM | GI50 (SF-268 CNS): 10.2 µM | TGI (SF-268 CNS): 24 µM | GI50 (NCI/ADR-RES ovarian): 2.83 µM
